We go through two compounds from patent publication US20130280392A1, “PROCESS FOR CONTROLLING MICROORGANISMS IN BEVERAGE PRODUCTS” (DeLaval Holding AB, priority 2011, published 2013).

Molecules are shown by their SMILES.

The test system of series [1] is Alicyclobacillus acidoterrestris ATCC 49025. Kind of series: Germicidal efficacy of PAA and chlorine dioxide in dilute nutrient solution, apple juice and carrot juice, MPN viability count. In kind it is cell-based. The note with it: for LR: 22° C., 10 minutes contact, inoculum 1.40×10^7 CFU/ml; for reduction in the bacteria: all treated samples of Table 3 (5 and 10 ppm; nutrient solution, apple juice, carrot juice). Here is the method:
In this experiment, the germicidal efficacy of various concentrations of PAA and chlorine dioxide (by dilution of CDG Solution 3000™, CDG Environmental LLC) at 22° C. after 10 minutes of contact time was determined in a dilute nutrient solution (Tryptone pancreatic digest of casein 1.0 g/L and NaCl 8.5 g/L), apple juice, and carrot juice. Alicyclobacillus acidoterrestris ATCC 49025 was used as the inoculum at a concentration of 1.40×10^7 CFU/ml. After the subscribed contact time, the PAA was neutralized with D/E broth and chlorine dioxide with a peroxide neutralizer, and a viability count for each of the juices was performed using the most probable number technique (MPN). The results are shown in Table 3, and graphically in FIG. 5.

For series [2], the system named is Alicyclobacillus acidoterrestris. Put plainly: Antimicrobial efficacy of PAA in organic apple and carrot juice, MPN viability count. It is filed as cell-based. The note with it: 22° C. As to the method: In this experiment, the antimicrobial efficacy of PAA in organic apple and carrot juice was measured by challenging the juices with 1×10^7 CFU/ml of Alicyclobacillus acidoterrestris, a spore-forming thermophile commonly present in juice operations. Immediately following bacterial challenge, the juice was dosed with different concentrations of PAA and incubated at room temperature (22° C.) for 10 minutes without agitation. After the subscribed contact time, the PAA was neutralized with D/E broth and a viability count for each of the juices was performed using the most probable number technique (MPN).

A short description of series [3]: Degradation of PAA in juices over time, residual PAA by titration with 0.1N sodium thiosulfate. In kind it is physicochemical. The note with it: for PAA concentration (below detectable limit): after 10 min at 195° F. (90.5° C.); for half-life at 100 ppm: room temperature. Here is the method:
The half life of PAA decreases with increasing temperature. The half life of 100 ppm solution of PAA in carrot juice (Brix=8.8) at room temperature is less than 20 min. Similarly, the half life of a 100 ppm solution of PAA in apple juice (Brix=11.4) at room temperature is less than 30 min. After 10 min at 195° F. (90.5° C.), the PAA concentration of a 20 ppm solution of PAA in either carrot (Brix=8.8) or apple juice (Brix=11.4) is below the detectable limit of 0.89 ppm by titration with 0.1N sodium thiosulfate. Thus, when the juice is pasteurized and sent to an evaporator for concentration, any remaining PAA in solution would be converted to acetic acid, water, and oxygen, thereby leaving no or substantially no PAA remaining in the final juice product 32. Briefly, during the titration process, any oxidizing species present in the sample converts a solution of potassium iodide to iodine in the presence of ammonium paramolybdate and phosphoric acid. Subsequently, a starch solution is added to form a deep blue color upon binding iodine. The PAA concentration can be calculated based on the volume of titrant needed to revert the deep blue color.
In this experiment, several juices were dosed with peracetic acid (PAA) (peroxyacetic acid 5.6%, hydrogen peroxide 26.5%) and kept at a controlled temperature (22° C. or 90° C.) for a given period of time to determine how the PAA would degrade over time. At the end of the given time period, the level of PAA remaining in the juice was measured by titration with 0.1N sodium thiosulfate. It can be seen that the PAA decomposed quite rapidly in the various juices, particularly when exposed to elevated temperatures.

Series [4] in a line: Chlorine dioxide demand of apple and carrot juice (HACH DPD Method #10126). It is filed as physicochemical. The note with it: 22° C., 10 minutes. As to the method:
In this experiment, apple juice and carrot juice were exposed to pure and stable chlorine dioxide (CDG Solution 3000™, CDG Environmental, LLC) in order to determine their respective chlorine dioxide demands, as determined by HACH DPD Method for Chlorine dioxide (Method #10126). The juice samples were exposed to the chlorine dioxide under room temperature conditions (22° C.), and then the residual concentrations determined 10 minutes after exposure. It can be seen that the chlorine dioxide demands were relatively high.

The mark [5] stands for this setting: 5 ppm, dilute nutrient solution.
The mark [6] stands for this setting: 10 ppm, dilute nutrient solution.
Setting [7] is: apple juice, Brix 11.4, exposed concentration 5 ppm.
The mark [8] stands for this setting: apple juice, Brix 11.4, exposed concentration 10 ppm.
The mark [9] stands for this setting: apple juice, Brix 11.4, exposed concentration 25 ppm.
[10] abbreviates: apple juice, Brix 11.4, exposed concentration 60 ppm.
[11] abbreviates: carrot juice, Brix 8.8, exposed concentration 5 ppm.
Where [12] appears, read: carrot juice, Brix 8.8, exposed concentration 10 ppm.
[13] abbreviates: carrot juice, Brix 8.8, exposed concentration 25 ppm.
Setting [14] is: carrot juice, Brix 8.8, exposed concentration 60 ppm.

The half-life is the time in which the quantity being followed falls by half. Regarding `CC(=O)OO` [PAA, peracetic acid], the LR was 4.34 in series [1] (5 ppm, apple juice); 4.18 in series [1] (5 ppm, carrot juice); 4.18 in series [1] (setting [5]); 4.48 in series [1] (10 ppm, apple juice); 4.34 in series [1] (10 ppm, carrot juice); 4.51 in series [1] (setting [6]). Besides, the “reduction in the bacteria” value in series [1] was over 4 log; in series [2] (all PAA-treated samples, 1×10^7 CFU/ml challenge, 10 minutes (FIG. 4)), over 4 log. The “loss in cell viability” value in series [2] (PAA dose as low as 0.35 ppm, 10 minutes) is given as “substantial loss in cell viability”. The “PAA concentration (below detectable limit)” value in series [3] (20 ppm PAA in apple juice (Brix=11.4)) and in series [3] (20 ppm PAA in carrot juice (Brix=8.8)) was under 0.89 ppm in each case. In addition, the figures for the half-life at 100 ppm in series [3] (100 ppm solution of PAA in apple juice (Brix=11.4)) and in series [3] (100 ppm solution of PAA in carrot juice (Brix=8.8)) were under 30 min and under 20 min, respectively. Moreover, the PAA read in series [3] (apple juice, Brix 11.4, PAA dosed 20 ppm, 90° C., 10 min, followed by 5 min in ice) is reported as under 0.98 ppm; in series [3] (apple juice, Brix 11.4, PAA dosed 100 ppm, 22° C., 60 min) it was 19.6 ppm; in series [3] (apple juice, Brix 11.4, PAA dosed 100 ppm, 90° C., 10 min, followed by 5 min in ice), 15.7 ppm; in series [3] (carrot juice, Brix 8.8, PAA dosed 20 ppm, 90° C., 10 min, followed by 5 min in ice) it was under 0.98 ppm; in series [3] (carrot juice, Brix 8.8, PAA dosed 100 ppm, 22° C., 60 min) it was 3.92 ppm; in series [3] (carrot juice, Brix 8.8, PAA dosed 100 ppm, 90° C., 10 min, followed by 5 min in ice) it was 2.94 ppm.
Regarding `[O][Cl+][O-]` [chlorine dioxide], the LR in series [1] (5 ppm, apple juice) was 0.65; in series [1] (5 ppm, carrot juice), 1.12; in series [1] (setting [5]), 1.34; in series [1] (10 ppm, apple juice), 1.18; in series [1] (10 ppm, carrot juice), 1.57; in series [1] (setting [6]), 1.24. For the same compound, the “reduction in the bacteria” value in series [1] is given as about 1 log. For the same compound, the Demand is over 4.95 ppm in series [4] (setting [7]); 9.32 ppm in series [4] (setting [8]); 24.3 ppm in series [4] (setting [9]); 57.8 ppm in series [4] (setting [10]); over 4.95 ppm in series [4] (setting [11]); over 9.95 ppm in series [4] (setting [12]). The Demand in series [4] (setting [13]) is on record as over 24.97 ppm; in series [4] (setting [14]), 59.87 ppm. The “Read Concentration” value is under 0.05 ppm in series [4] (setting [7]); 0.68 ppm in series [4] (setting [8]); 0.7 ppm in series [4] (setting [9]); 2.2 ppm in series [4] (setting [10]); under 0.05 ppm in series [4] (setting [11]); under 0.05 ppm in series [4] (setting [12]). Also, the figures for the “Read Concentration” value in series [4] (setting [13]) and in series [4] (setting [14]) were under 0.05 ppm and 0.13 ppm, respectively.
